The values that follow come from patent US20240409585A1, “MACROCYCLIC IMMUNOMODULATORS” (priority 2021, published 2024).

The assay has as its target T1, PE-labeled human PD-L1-Ig binding to Jurkat cell line over-expressing human PD-1 (Jurkat-PD-1) (Homo sapiens, UniProt Q15116).
T1 construct: expressed in transfected cells; host or cells: Jurkat
Description: Jurkat-PD-1 Cell Binding High-Content Screening Assay (CBA): Method 1. To be noted: Jurkat-hPD-1 cells, PE-labeled PD-L1-Ig 20 nM final.

Setting [1] is: read-out: Jurkat HPDL1 PD1 IC50 (uM) (Method 1).

Like-named read-outs stand apart in the source and are kept apart here. Numbered stars: 1 amine (or outer) side, 2 acyl side, 3 side chain; on linkers, the order of the positions; unused ones are H or OH. Bridge positions count the residues as written; N and C are the ends. Square brackets hold non-standard residues; d marks the D form. Peptide text beside a SMILES is read from it. * marks the point of attachment. ξ: configuration not given here. X22 = NC(=O)c1cccc(-c2ccc(C[C@H](N[*:1])C(=O)[*:2])cc2)c1; Phe(4-COOH) = N[C@@H](Cc1ccc(C(=O)O)cc1)C(=O)O; Bip = N[C@@H](Cc1ccc(-c2ccccc2)cc1)C(=O)O; Phe(3-Me) = Cc1cccc(C[C@H](N)C(=O)O)c1; Cyclopropanecarbonyl = O=C(C1CC1)*; 3Pal = N[C@@H](Cc1cccnc1)C(=O)O; Cha = N[C@@H](CC1CCCCC1)C(=O)O; Cit = NC(=O)NCCC[C@H](N)C(=O)O; Thr(3ξ) = CC(O)[C@H](N)C(=O)O; ξCha = NC(CC1CCCCC1)C(=O)O; Pip = O=C(O)[C@@H]1CCCCN1; Carboxymethyl = O=C(O)C*; NMeA = CN[C@@H](C)C(=O)O; Orn = NCCC[C@H](N)C(=O)O; Dab = NCC[C@H](N)C(=O)O; NH(CH2)3NH2 = NCCCN*

T1 sequence (Q15116 25-288): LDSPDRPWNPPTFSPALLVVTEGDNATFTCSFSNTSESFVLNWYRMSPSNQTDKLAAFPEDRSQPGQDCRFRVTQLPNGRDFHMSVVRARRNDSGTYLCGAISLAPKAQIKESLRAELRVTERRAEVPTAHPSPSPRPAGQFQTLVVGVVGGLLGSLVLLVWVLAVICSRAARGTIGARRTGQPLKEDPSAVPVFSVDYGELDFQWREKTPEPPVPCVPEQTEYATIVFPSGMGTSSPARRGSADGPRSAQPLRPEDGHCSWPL

On to `Cc1cccc(C[C@@H]2NC(=O)[C@H](CC(=O)O)NC(=O)[C@H](Cc3ccc(OCC(=O)O)cc3)NC(=O)[C@H](CCCNC(=O)C3CC3)NC(=O)CSC[C@@H](C(=O)N[C@@H](CO)C(N)=O)NC(=O)[C@H](CO)NC(=O)[C@H](C(C)O)NC(=O)C(CC3CCCCC3)NC(=O)[C@H](CCCNC(=N)N)NC(=O)[C@@H](CC(C)C)NC(=O)[C@H](C)N(C)C(=O)[C@H](CCCNC(N)=O)NC(=O)[C@H](Cc3ccc(-c4ccccc4)cc3)NC(=O)[C@H](C(C)C)NC2=O)c1` (stereo partly drawn) [Compound 2113] ({CH2CO}-[Orn](Cyclopropanecarbonyl)Y(Carboxymethyl)D[Phe(3-Me)]V[Bip][Cit][NMeA][dL]R[ξCha][Thr(3ξ)]SCS-NH2; thioether N-14), for which, under setting [1], the IC50 – broadly, the concentration at which inhibition is half-maximal – was determined as 0.02 µM. In turn, `C=C1N[C@@H](Cc2ccccc2)C(=O)N(C)[C@@H](C)C(=O)N[C@H](CC(C)C)C(=O)N[C@@H](CC(N)=O)C(=O)N[C@@H](CC(C)C)C(=O)N[C@@H](Cc2ccccc2)C(=O)N[C@@H](CO)C(=O)N[C@H](C(=O)N[C@@H](C)C(N)=O)CSCC(=O)N[C@@H](Cc2ccc(OCC(=O)O)cc2)C(=O)N[C@@H](Cc2ccc(C(=O)O)cc2)C(=O)N[C@@H](CC(=O)O)C(=O)N[C@@H](Cc2cccc(C)c2)C(=O)N[C@@H](CC(C)C)C(=O)N[C@H]1Cc1ccc(-c2ccccc2)cc1` [Compound 1585] yielded an IC50 (Jurkat HPDL1 PD1 IC50 (uM) (Method 1)) of 0.73 µM. Take `CC(C)C[C@@H]1NC(=O)[C@H](CCN)NC(=O)[C@@H](CC(C)C)NC(=O)[C@H](C)N(C)C(=O)[C@H](CCCNC(N)=O)NC(=O)[C@H](Cc2ccc(-c3ccccc3)cc2)NC(=O)[C@H](C(C)C)NC(=O)[C@H](Cc2c[nH]c3ccccc23)NC(=O)[C@H](CC(=O)O)NC(=O)[C@H](Cc2ccc(OCC(=O)O)cc2)NC(=O)[C@H](Cc2cccnc2)NC(=O)CSC[C@@H](C(=O)N[C@@H](C)C(N)=O)NC(=O)[C@H]([C@@H](C)O)NC(=O)[C@H](C(C)C)NC1=O` [Compound 1331] ({CH2CO}-[3Pal]Y(Carboxymethyl)DWV[Bip][Cit][NMeA][dL][Dab]LVTCA-NH2; thioether N-14): the IC50 under setting [1] worked out at 0.01 µM. The same measure, in the same setting: for `CC[C@H](C)[C@@H]1NC(=O)[C@H](Cc2ccc(-c3ccccc3)cc2)NC(=O)[C@H](C(C)C)NC(=O)[C@H](Cc2c[nH]c3ccccc23)NC(=O)[C@H](CC(=O)O)NC(=O)[C@H](Cc2ccc(O)cc2)NC(=O)[C@H](CC(N)=O)NC(=O)CSC[C@@H](C(=O)N[C@@H](C)C(N)=O)NC(=O)[C@H]([C@@H](C)O)NC(=O)[C@H](C(C)C)NC(=O)[C@H](CC(C)C)NC(=O)[C@H](CCN)NC(=O)[C@@H](CC(C)C)NC(=O)[C@@H]2CCCCN2C1=O` [Compound 1399] ({CH2CO}-NYDWV[Bip]I[Pip][dL][Dab]LVTCA-NH2; thioether N-14) the value was 0.14 µM. On the same count and under the same terms, the same measure for `CC(C)C[C@@H]1NC(=O)[C@H](CCCN)NC(=O)[C@@H](CC(C)C)NC(=O)[C@H](C)N(C)C(=O)[C@H](CCCNC(=N)N)NC(=O)[C@H](Cc2ccc(-c3ccccc3)cc2)NC(=O)[C@H](C(C)C)NC(=O)[C@H](Cc2c[nH]c3ccccc23)NC(=O)[C@H](CC(=O)O)NC(=O)[C@H](Cc2cnc[nH]2)NC(=O)[C@H](Cc2cnc[nH]2)NC(=O)CSC[C@@H](C(=O)N[C@@H](C)C(N)=O)NC(=O)[C@H]([C@@H](C)O)NC(=O)[C@H](C(C)C)NC1=O` [Compound 1136] ({CH2CO}-HHDWV[Bip]R[NMeA][dL][Orn]LVTCA-NH2; thioether N-14): 0.21 µM; for `CC(C)C[C@@H]1NC(=O)[C@H](Cc2c[nH]c3ccccc23)NC(=O)[C@H](CC(=O)O)NC(=O)[C@H](Cc2ccc(O)cc2)NC(=O)[C@H](Cc2ccccc2)NC(=O)CSC[C@@H](C(=O)N[C@@H](C)C(N)=O)NC(=O)[C@H](CO)NC(=O)[C@H](C(C)C)NC(=O)[C@H](CC(C)C)NC(=O)[C@H](CC(=O)O)NC(=O)[C@@H](C)NC(=O)[C@H](C)N(C)C(=O)[C@H](C(C)C)NC(=O)[C@H](Cc2ccc(-c3cccc(C(N)=O)c3)cc2)NC1=O` [Compound 1830] ({CH2CO}-FYDWL[X22]V[NMeA][dA]DLVSCA-NH2; thioether N-14): 0.9 µM. With `CC(C)C[C@@H]1NC(=O)[C@H](Cc2c[nH]c3ccccc23)NC(=O)[C@H](CC(=O)O)NC(=O)[C@H](Cc2ccc(O)cc2)NC(=O)[C@H](Cc2ccccc2)NC(=O)CSC[C@@H](C(=O)N[C@@H](C)C(N)=O)NC(=O)[C@H](CO)NC(=O)[C@H](C(C)C)NC(=O)[C@H](CC(C)C)NC(=O)[C@H](CC(N)=O)NC(=O)[C@@H](C(C)C)NC(=O)[C@H](C)N(C)C(=O)[C@H](C(C)C)NC(=O)[C@H](Cc2ccc(-c3ccccc3)cc2)NC1=O` [Compound 1771] ({CH2CO}-FYDWL[Bip]V[NMeA][dV]NLVSCA-NH2; thioether N-14), under setting [1], the IC50 is 0.04 µM. Same read-out and setting: the same measure for `CC(=O)NCCCC[C@@H]1NC(=O)[C@H](C(C)C)NC(=O)[C@H](CC2CCCCC2)NC(=O)[C@H](CCN)NC(=O)[C@@H](CC(C)C)NC(=O)[C@H](C)N(C)C(=O)[C@H](CCC(N)=O)NC(=O)[C@H](Cc2ccc(-c3ccccc3)cc2)NC(=O)[C@H](C(C)C)NC(=O)[C@H](Cc2cccc(C)c2)NC(=O)[C@H](CC(=O)O)NC(=O)[C@H](Cc2ccc(OCC(=O)O)cc2)NC(=O)[C@H](Cc2ccc(OCC(=O)O)cc2)NC(=O)CSC[C@@H](C(=O)NCCCN)NC1=O` [Compound 2265] ({CH2CO}-Y(Carboxymethyl)Y(Carboxymethyl)D[Phe(3-Me)]V[Bip]Q[NMeA][dL][Dab][Cha]VK(Ac)C-{NH(CH2)3NH2}; thioether N-14): 0.02 µM; for `Cc1cccc(C[C@@H]2NC(=O)[C@H](CC(=O)O)NC(=O)[C@H](Cc3ccc(C(=O)O)cc3)NC(=O)[C@H](Cc3ccc(OCC(=O)O)cc3)NC(=O)CSC[C@@H](C(=O)N[C@@H](C)C(N)=O)NC(=O)[C@H](CO)NC(=O)[C@H](C(C)C)NC(=O)[C@H](CC(C)C)NC(=O)[C@H](CC(N)=O)NC(=O)[C@@H](C)NC(=O)[C@H](C)N(C)C(=O)[C@H](C(C)C)NC(=O)[C@H](Cc3ccc(-c4ccccc4)cc3)NC(=O)[C@H](CC(C)C)NC2=O)c1` [Compound 1579] ({CH2CO}-Y(Carboxymethyl)[Phe(4-COOH)]D[Phe(3-Me)]L[Bip]V[NMeA][dA]NLVSCA-NH2; thioether N-14): 0.02 µM; for `CC(C)C[C@@H]1NC(=O)[C@H](Cc2c[nH]c3ccccc23)NC(=O)[C@H](CC(=O)O)NC(=O)[C@H](Cc2ccc(OCC(=O)O)cc2)NC(=O)[C@H](Cc2ccc(OCC(=O)O)cc2)NC(=O)CSC[C@@H](C(=O)NCC(N)=O)NC(=O)[C@H](CO)NC(=O)[C@H](C(C)C)NC(=O)[C@H](CC(C)C)NC(=O)[C@H](CC(N)=O)NC(=O)[C@@H](CC(C)C)NC(=O)[C@H](C)N(C)C(=O)[C@H](C(C)C)NC(=O)[C@H](Cc2ccc(-c3ccccc3)cc2)NC1=O` [Compound 1550] ({CH2CO}-Y(Carboxymethyl)Y(Carboxymethyl)DWL[Bip]V[NMeA][dL]NLVSCG-NH2; thioether N-14): 0.01 µM. For `Cc1cccc(C[C@@H]2NC(=O)[C@H](CC(=O)O)NC(=O)[C@H](Cc3ccc(OCC(=O)O)cc3)NC(=O)[C@H](CC(N)=O)NC(=O)CSC[C@@H](C(N)=O)NC(=O)[C@H]([C@@H](C)O)NC(=O)[C@H](C(C)C)NC(=O)[C@H](CC3CCCCC3)NC(=O)[C@H](CCN)NC(=O)[C@@H](CC(C)C)NC(=O)[C@H](C)N(C)C(=O)[C@H](Cc3ccc(OCC(=O)O)cc3)NC(=O)[C@H](Cc3ccc(-c4ccccc4)cc3)NC(=O)[C@H](Cc3ccc(OCC(=O)O)cc3)NC2=O)c1` [Compound 1666] ({CH2CO}-NY(Carboxymethyl)D[Phe(3-Me)]Y(Carboxymethyl)[Bip]Y(Carboxymethyl)[NMeA][dL][Dab][Cha]VTC-NH2; thioether N-14), under setting [1], the IC50 worked out at 0.09 µM.
